molecular target: T1, human Nav1.6 (hNav1.6) (Homo sapiens, UniProt Q9UQD0); experiment: Modulation of late sodium current (INaL), PatchXpress electrophysiology, ATX-II evoked; type: cell-based; details: HEK293; 1 μM compound; HEK-293 cells expressing recombinant human Nav1.6; late current evoked by 300 nM ATX-II; read-out: INaL v1.6 (1 μM, % Inhibition)
T1 construct: expressed in transfected cells; host or cells: HEK-293 (G418 selection)
Description: Functional characterization of exemplary compounds to modulate INaL expressed by the Nav1.6 voltage-gated sodium channel was accomplished using the PatchXpress™ high throughput electrophysiology platform (Molecular Devices, Sunnyvale, CA). HEK-293 cells expressing recombinant, human Nav1.6 (hNav1.6) were grown in DMEM/high-glucose Dulbecco's modified, 10% FBS, 2 mM sodium pyruvate, 10 mM HEPES and 400 μg/mL G418. Cells were grown to 50%-80% confluency prior to harvesting. Trypsinized cells were washed, allowed to recover for 1 hour and then resuspended in extracellular recording solution at a concentration of 1×10^6 cells/ml. The onboard liquid handling facility of the PatchXpress was used for dispensing cells and applying test compounds. Nay late currents were evoked by the application of 300 nM ATX-II. INaL was evoked by depolarizing pulses to 0 mV for 200 ms from a non-inactivating holding potential (e.g., −120 mV) at a frequency of 0.1 Hz. INaL amplitude and stability were determined by analyzing the mean current amplitude over the final 20 ms of the test pulse. Following steady state block with exemplary compounds (e.g., as described herein), a Na^+ free solution containing an impermeant cation (e.g., Choline or NDMG) was added to confirm the identify of the sodium current.
Results from this assay relating to percent inhibition of INaL at hNaV1.6 (measured using a procedure similar to described above but using HEK-293 cells expressing recombinant, human Nay 1.6 (h Nay 1.6) at 1 μM are summarized in Table 1 below. In this table, “A” indicates inhibition of less than 30%; “B” indicates inhibition of between about 30% to about 70%; and “C” indicates inhibition of greater than 70%.

T1 sequence (Q9UQD0 whole entry): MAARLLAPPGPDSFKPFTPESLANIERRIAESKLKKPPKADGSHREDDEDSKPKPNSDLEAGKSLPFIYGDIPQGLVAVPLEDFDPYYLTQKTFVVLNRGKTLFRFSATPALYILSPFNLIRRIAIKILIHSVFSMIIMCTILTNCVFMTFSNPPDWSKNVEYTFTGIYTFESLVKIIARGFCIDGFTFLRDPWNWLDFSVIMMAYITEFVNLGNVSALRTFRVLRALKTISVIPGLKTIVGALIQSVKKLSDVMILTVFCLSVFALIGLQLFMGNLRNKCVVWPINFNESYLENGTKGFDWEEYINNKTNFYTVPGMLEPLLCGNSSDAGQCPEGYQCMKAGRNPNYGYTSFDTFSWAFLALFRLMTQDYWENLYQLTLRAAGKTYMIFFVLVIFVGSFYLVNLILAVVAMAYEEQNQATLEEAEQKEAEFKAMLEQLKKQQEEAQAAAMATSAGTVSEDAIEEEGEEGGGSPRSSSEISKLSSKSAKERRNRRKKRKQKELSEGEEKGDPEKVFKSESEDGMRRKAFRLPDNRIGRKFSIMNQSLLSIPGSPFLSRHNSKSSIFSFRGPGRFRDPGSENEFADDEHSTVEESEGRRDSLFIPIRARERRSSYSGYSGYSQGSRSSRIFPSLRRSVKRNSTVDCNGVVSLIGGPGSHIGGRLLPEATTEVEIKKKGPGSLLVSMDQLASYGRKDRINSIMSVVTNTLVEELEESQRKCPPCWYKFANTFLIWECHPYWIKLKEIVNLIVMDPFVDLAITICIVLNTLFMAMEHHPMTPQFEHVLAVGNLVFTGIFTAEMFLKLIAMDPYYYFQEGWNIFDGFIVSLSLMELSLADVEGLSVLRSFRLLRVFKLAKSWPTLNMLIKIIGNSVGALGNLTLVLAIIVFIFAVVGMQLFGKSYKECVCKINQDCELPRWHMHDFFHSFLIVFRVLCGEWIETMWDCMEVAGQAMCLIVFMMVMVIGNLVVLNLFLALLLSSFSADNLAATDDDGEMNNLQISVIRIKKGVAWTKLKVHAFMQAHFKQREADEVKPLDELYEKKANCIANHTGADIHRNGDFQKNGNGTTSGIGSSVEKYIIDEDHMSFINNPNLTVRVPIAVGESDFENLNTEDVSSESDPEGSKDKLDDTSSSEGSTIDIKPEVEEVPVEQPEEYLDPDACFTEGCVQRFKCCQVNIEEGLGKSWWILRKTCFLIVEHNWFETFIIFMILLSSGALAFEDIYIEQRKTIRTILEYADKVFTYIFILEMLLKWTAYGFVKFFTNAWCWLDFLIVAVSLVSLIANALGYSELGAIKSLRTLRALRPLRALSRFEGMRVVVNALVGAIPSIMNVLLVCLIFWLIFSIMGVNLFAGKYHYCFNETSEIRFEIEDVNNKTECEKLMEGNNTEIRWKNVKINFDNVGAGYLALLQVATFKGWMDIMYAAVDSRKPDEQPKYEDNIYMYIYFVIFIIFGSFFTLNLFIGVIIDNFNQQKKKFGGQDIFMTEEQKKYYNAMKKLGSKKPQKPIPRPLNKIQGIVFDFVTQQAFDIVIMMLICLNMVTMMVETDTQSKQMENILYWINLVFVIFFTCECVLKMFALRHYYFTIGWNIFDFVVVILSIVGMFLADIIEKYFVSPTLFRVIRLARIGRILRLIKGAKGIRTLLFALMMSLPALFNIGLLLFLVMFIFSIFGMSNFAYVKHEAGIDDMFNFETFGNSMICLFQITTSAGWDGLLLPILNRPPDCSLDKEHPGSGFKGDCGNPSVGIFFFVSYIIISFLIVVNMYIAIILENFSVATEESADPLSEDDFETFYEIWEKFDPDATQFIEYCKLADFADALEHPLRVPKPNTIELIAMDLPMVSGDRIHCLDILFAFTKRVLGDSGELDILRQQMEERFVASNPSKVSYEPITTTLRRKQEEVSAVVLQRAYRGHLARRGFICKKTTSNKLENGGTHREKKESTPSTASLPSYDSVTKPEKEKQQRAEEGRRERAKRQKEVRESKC

Row | inhibition at 1 µM | Structure (SMILES)
1 | > 70% | Cc1nnn2ccc(-c3ccc(OC(F)(F)F)cc3)cc12 [Compound 7]
2 | > 70% | [2H]c1nnn2ccc(-c3cnc(O[C@@H](C)C(F)(F)F)c(F)c3)cc12 [Compound 33]
3 | > 70% | Cc1nnn2ccc(-c3cnc(OC(C)(C)C(F)(F)F)c(F)c3)cc12 [Compound 25]
4 | > 70% | Cc1nnn2ccc(-c3cnc(O[C@@H](C)C(F)(F)F)c(F)c3)cc12 [Compound 22]
5 | > 70% | COCc1nnn2ccc(-c3cnc(OC4(C(F)(F)F)CCC4)c(F)c3)cc12 [Compound 29]
6 | > 70% | COCc1nnn2ccc(-c3cnc(OC(C)(C)C(F)(F)F)c(F)c3)cc12 [Compound 26]
7 | > 70% | FC(F)(F)Oc1ccc(-c2ccn3nncc3c2)cc1 [Compound 9]
8 | > 70% | COCc1cc(OC(F)(F)F)ccc1-c1ccn2nncc2c1 [Compound 2]
9 | > 70% | COCc1nnn2ccc(-c3cnc(O[C@@H](C)C(F)(F)F)c(F)c3)cc12 [Compound 27]
10 | > 70% | Fc1cc(-c2ccn3nncc3c2)cnc1OC1CC(F)(F)C1 [Compound 11]
11 | > 70% | Cc1cc(-c2cnc(O[C@@H](C)C(F)(F)F)c(F)c2)cc2cnnn12 [Compound 45]
12 | > 70% | FC(F)(F)COc1ccc(-c2ccn3nncc3c2)cn1 [Compound 15]
13 | > 70% | [2H]C([2H])(OC)c1nnn2ccc(-c3cnc(OC(C)(C)C(F)(F)F)c(F)c3)cc12 [Compound 41]
14 | 30 to 70% | Cc1cc(-c2cnc(OCC(F)(F)F)c(F)c2)cc2cnnn12 [Compound 46]
15 | > 70% | C[C@H](Oc1ncc(-c2ccn3nnc(C(F)F)c3c2)cc1F)C(F)(F)F [Compound 38]
16 | > 70% | [2H]C([2H])([2H])c1nnn2ccc(-c3cnc(OC(C)(C)C(F)(F)F)c(F)c3)cc12 [Compound 42]
17 | 30 to 70% | Cc1cc(-c2cnc(O[C@H](C)C(F)(F)F)c(F)c2)cc2cnnn12 [Compound 44]
18 | 30 to 70% | Cc1nnn2ccc(-c3cnc(OCC(F)(F)F)c(F)c3)cc12 [Compound 8]
19 | > 70% | CC(C)(Oc1ncc(-c2ccn3nncc3c2)cc1F)C(F)(F)F [Compound 24]
20 | > 70% | C[C@H](Oc1ncc(-c2ccn3nnc(C(F)(F)F)c3c2)cc1F)C(F)(F)F [Compound 31]
21 | > 70% | COCc1nnn2ccc(-c3ccc(OC(F)(F)F)cc3C)cc12 [Compound 13]

Row | inhibition at 1 µM | Structure (SMILES)
22 | 30 to 70% | COCc1nnn2ccc(-c3cnc(OCC(F)(F)F)c(F)c3)cc12 [Compound 20]
23 | > 70% | [2H]c1nnn2ccc(-c3cnc(OC4(C(F)(F)F)CCC4)c(F)c3)cc12 [Compound 36]
24 | > 70% | Cc1cc(OC(F)(F)F)ccc1-c1ccn2nnc(C(F)(F)F)c2c1 [Compound 4]
25 | > 70% | C[C@H](Oc1ncc(-c2ccn3nncc3c2)cc1F)C(F)(F)F [Compound 18, 5-[5-fluoro-6-[(15)-2,2,2-trifluoro-1-methyl-ethoxy]-3-pyridyl]triazolo[1,5-a]pyridine]
26 | 30 to 70% | Fc1cc(-c2ccn3nncc3c2)cnc1OCC(F)(F)F [Compound 10]
27 | > 70% | C[C@@H](Oc1ncc(-c2ccn3nnc(C(F)(F)F)c3c2)cc1F)C(F)(F)F [Compound 30]
28 | > 70% | CC(C)(Oc1ncc(-c2ccn3nnc(C(F)F)c3c2)cc1F)C(F)(F)F [Compound 39]
29 | > 70% | C[C@@H](Oc1ncc(-c2ccn3nncc3c2)cc1F)C(F)(F)F [Compound 17, 5-[5-fluoro-6-[(1R)-2,2,2-trifluoro-1-methyl-ethoxy]-3-pyridyl]triazolo[1,5-a]pyridine]
30 | > 70% | [2H]c1nnn2ccc(-c3cnc(OC(C)(C)C(F)(F)F)c(F)c3)cc12 [Compound 35]
31 | 30 to 70% | FC(F)Oc1ccc(-c2ccn3nncc3c2)cc1 [Compound 14]
32 | > 70% | [2H]C([2H])([2H])OCc1nnn2ccc(-c3cnc(OC(C)(C)C(F)(F)F)c(F)c3)cc12 [Compound 40]
33 | > 70% | COc1cc(OC(F)(F)F)ccc1-c1ccn2nnc(C)c2c1 [Compound 43]
34 | > 70% | Cc1nnn2ccc(-c3cnc(O[C@H](C)C(F)(F)F)c(F)c3)cc12 [Compound 21]
35 | 30 to 70% | COCc1cc(-c2ccn3nncc3c2)ccc1OC(F)(F)F [Compound 16]
36 | > 70% | Cc1cc(OC(F)(F)F)ccc1-c1ccn2nnc(C)c2c1 [Compound 3]
37 | > 70% | [2H]c1nnn2ccc(-c3cnc(OCC(F)(F)F)c(F)c3)cc12 [Compound 34]
38 | 30 to 70% | Cc1cc(OC(F)(F)F)ccc1-c1ccn2nncc2c1 [Compound 1, 5-[2-methyl-4-(trifluoromethoxy)phenyl]triazolo[1,5-a]pyridine]
39 | > 70% | Cc1nnn2ccc(-c3cnc(OC4CC(F)(F)C4)c(F)c3)cc12 [Compound 12]
40 | 30 to 70% | Cc1nnn2ccc(-c3ccc(C4(C#N)CC4)cc3)cc12 [Compound 6]
41 | > 70% | [2H]c1nnn2ccc(-c3cnc(O[C@H](C)C(F)(F)F)c(F)c3)cc12 [Compound 32]
42 | > 70% | Cc1cc(OC(F)(F)F)ccc1-c1cc(C)n2nncc2c1 [Compound 5]

Row | Structure (SMILES) | inhibition at 1 µM
43 | FC1(F)C[C@H]1c1ccc(-c2ccn3nncc3c2)cc1 (single isomer, unassigned) [Compound 23-2] | > 70%
44 | FC1(F)C[C@@H]1c1ccc(-c2ccn3nncc3c2)cc1 (single isomer, unassigned) [Compound 23-1] | 30 to 70%
45 | C[C@@H](Oc1ncc(-c2ccn3nnc(C(F)F)c3c2)cc1F)C(F)(F)F [Compound 37] | > 70%

— patent publication US11918571B2, “Compounds and their methods of use” (Praxis Precision Medicines, Inc., priority 2017, dated 2024)
